From ChEMBL document CHEMBL4196088, “Induction of cell killing and autophagy by amphiphilic pyrrolidine derivatives on human pancreatic cancer cells” (Eur J Med Chem, 2018)

Legend:
[1] = system: HeLa; test: Growth inhibition of human HeLa cells after 72 hrs; type: functional, cell-based
[2] = system: Fibroblast; test: Induction of apoptosis in human primary fibroblasts at 20 uM after 24 hrs by propidium iodide staining based flow cytometry (reference value: 4.8%); type: cell-based
[3] = system: PK9; test: Induction of apoptosis in human PK9 cells assessed as accumulation at sub-G0/G1 phase at 20 uM after 24 hrs by propidium iodide staining based flow cytometry (reference value: 2.2%); type: functional
[4] = Induction of apoptosis in HPNE cells assessed as accumulation at sub-G0/G1 phase at 20 uM after 72 hrs by propidium iodide staining based flow cytometry (reference value: 6.6%); type: cell-based; settings: human
[5] = Induction of apoptosis in HPNE cells assessed as accumulation at sub-G0/G1 phase at 20 uM after 24 hrs by propidium iodide staining based flow cytometry (reference value: 0.6%); type: cell-based; settings: human
[6] = system: PANC-1; test: Induction of apoptosis in human PANC1 cells assessed as accumulation at sub-G0/G1 phase at 20 uM after 24 hrs by propidium iodide staining based flow cytometry (reference value: 0.6 to 0.7%); type: functional
[7] = system: Fibroblast; test: Induction of apoptosis in human primary fibroblasts assessed as accumulation at sub-G0/G1 phase at 10 uM after 48 hrs by propidium iodide staining based flow cytometry (reference value: 6.1%); type: cell-based
[8] = Induction of apoptosis in HPNE cells assessed as accumulation at sub-G0/G1 phase at 10 uM after 72 hrs by propidium iodide staining based flow cytometry (reference value: 6.6%); type: cell-based; settings: human
[9] = system: PANC-1; test: Induction of apoptosis in human PANC1 cells assessed as accumulation at sub-G0/G1 phase at 10 uM after 48 hrs by propidium iodide staining based flow cytometry (reference value: 0.2 to 2.9%); type: functional
[10] = system: Fibroblast; test: Induction of apoptosis in human primary fibroblasts at 20 uM after 72 hrs by propidium iodide staining based flow cytometry (reference value: 6.7%); type: cell-based
[11] = system: PK9; test: Induction of apoptosis in human PK9 cells assessed as accumulation at sub-G0/G1 phase at 10 uM after 48 hrs by propidium iodide staining based flow cytometry (reference value: 3.8%); type: functional
[12] = Induction of apoptosis in HPNE cells assessed as accumulation at sub-G0/G1 phase at 10 uM after 24 hrs by propidium iodide staining based flow cytometry (reference value: 0.6%); type: cell-based; settings: human
[13] = system: PK9; test: Induction of apoptosis in human PK9 cells assessed as accumulation at sub-G0/G1 phase at 20 uM after 48 hrs by propidium iodide staining based flow cytometry (reference value: 3.8%); type: functional
[14] = Induction of apoptosis in HPNE cells assessed as accumulation at sub-G0/G1 phase at 20 uM after 48 hrs by propidium iodide staining based flow cytometry (reference value: 0.7%); type: cell-based; settings: human
[15] = Induction of apoptosis in HPNE cells assessed as accumulation at sub-G0/G1 phase at 10 uM after 48 hrs by propidium iodide staining based flow cytometry (reference value: 0.7%); type: cell-based; settings: human
[16] = system: PANC-1; test: Induction of apoptosis in human PANC1 cells assessed as accumulation at sub-G0/G1 phase at 20 uM after 48 hrs by propidium iodide staining based flow cytometry (reference value: 0.2 to 2.9%); type: functional
[17] = system: PK9; test: Induction of apoptosis in human PK9 cells assessed as accumulation at sub-G0/G1 phase at 10 uM after 72 hrs by propidium iodide staining based flow cytometry (reference value: 4%); type: functional
[18] = system: PANC-1; test: Induction of apoptosis in human PANC1 cells assessed as accumulation at sub-G0/G1 phase at 10 uM after 72 hrs by propidium iodide staining based flow cytometry (reference value: 1.6 to 3.2%); type: functional
[19] = system: PANC-1; test: Induction of apoptosis in human PANC1 cells assessed as accumulation at sub-G0/G1 phase at 10 uM after 24 hrs by propidium iodide staining based flow cytometry (reference value: 0.6 to 0.7%); type: functional
[20] = system: Fibroblast; test: Induction of apoptosis in human primary fibroblasts assessed as accumulation at sub-G0/G1 phase at 10 uM after 24 hrs by propidium iodide staining based flow cytometry (reference value: 4.8%); type: cell-based
[21] = system: Fibroblast; test: Induction of apoptosis in human primary fibroblasts at 20 uM after 48 hrs by propidium iodide staining based flow cytometry (reference value: 6.1%); type: cell-based
[22] = system: PK9; test: Induction of apoptosis in human PK9 cells assessed as accumulation at sub-G0/G1 phase at 10 uM after 24 hrs by propidium iodide staining based flow cytometry (reference value: 2.2%); type: functional
[23] = system: Fibroblast; test: Induction of apoptosis in human primary fibroblasts assessed as accumulation at sub-G0/G1 phase at 10 uM after 72 hrs by propidium iodide staining based flow cytometry (reference value: 6.7%); type: cell-based
[24] = system: PANC-1; test: Induction of apoptosis in human PANC1 cells assessed as accumulation at sub-G0/G1 phase at 20 uM after 72 hrs by propidium iodide staining based flow cytometry (reference value: 1.6 to 3.2%); type: functional
[25] = system: PK9; test: Induction of apoptosis in human PK9 cells assessed as accumulation at sub-G0/G1 phase at 20 uM after 72 hrs by propidium iodide staining based flow cytometry (reference value: 4%); type: functional
[26] = system: BXPC-3; test: Induction of apoptosis in human BxPC3 cells assessed as accumulation at sub-G0/G1 phase harboring pSFFV-Bcl-XL at 20 uM after 48 hrs by propidium iodide staining based flow cytometry (reference value: 1.3%); type: functional
[27] = system: BXPC-3; test: Induction of apoptosis in human BxPC3 cells harboring pSFFV-Bcl-XL assessed as accumulation at sub-G0/G1 phase at 10 uM after 24 hrs by propidium iodide staining based flow cytometry (reference value: 1.5%); type: functional
[28] = system: BXPC-3; test: Induction of apoptosis in human BxPC3 cells assessed as accumulation at sub-G0/G1 phase at 20 uM after 48 hrs by propidium iodide staining based flow cytometry (reference value: 2.8%); type: functional
[29] = system: BXPC-3; test: Induction of apoptosis in human BxPC3 cells harboring pSFFV-Bcl-XL assessed as accumulation at sub-G0/G1 phase at 10 uM after 48 hrs by propidium iodide staining based flow cytometry (reference value: 1.9%); type: functional
[30] = system: BXPC-3; test: Induction of apoptosis in human BxPC3 cells assessed as accumulation at sub-G0/G1 phase harboring pSFFV-Bcl-XL at 20 uM after 24 hrs by propidium iodide staining based flow cytometry (reference value: 1.2%); type: functional
[31] = system: BXPC-3; test: Induction of apoptosis in human BxPC3 cells assessed as accumulation at sub-G0/G1 phase at 10 uM after 72 hrs by propidium iodide staining based flow cytometry (reference value: 3.4%); type: functional
[32] = system: BXPC-3; test: Induction of apoptosis in human BxPC3 cells assessed as accumulation at sub-G0/G1 phase at 10 uM after 24 hrs by propidium iodide staining based flow cytometry (reference value: 1.8%); type: functional
[33] = system: BXPC-3; test: Induction of apoptosis in human BxPC3 cells assessed as accumulation at sub-G0/G1 phase harboring pSFFV-Bcl-XL at 20 uM after 72 hrs by propidium iodide staining based flow cytometry (reference value: 1.3%); type: functional
[34] = system: BXPC-3; test: Induction of apoptosis in human BxPC3 cells assessed as accumulation at sub-G0/G1 phase at 20 uM after 24 hrs by propidium iodide staining based flow cytometry (reference value: 2.3%); type: functional
[35] = system: BXPC-3; test: Induction of apoptosis in human BxPC3 cells assessed as accumulation at sub-G0/G1 phase at 10 uM after 48 hrs by propidium iodide staining based flow cytometry (reference value: 2.8%); type: functional
[36] = system: BXPC-3; test: Induction of apoptosis in human BxPC3 cells assessed as accumulation at sub-G0/G1 phase at 20 uM after 72 hrs by propidium iodide staining based flow cytometry (reference value: 3.4%); type: functional
[37] = system: BXPC-3; test: Induction of apoptosis in human BxPC3 cells harboring pSFFV-Bcl-XL assessed as accumulation at sub-G0/G1 phase at 10 uM after 72 hrs by propidium iodide staining based flow cytometry (reference value: 2%); type: functional
[38] = system: SK-BR-3; test: Growth inhibition of human SKBR3 cells after 72 hrs; type: functional, cell-based; settings: SK-BR-3, 72 h

Structure (SMILES) | IC50 [1] | Activity [2] | Activity [3] | Activity [4] | Activity [5] | Activity [6] | Activity [7] | Activity [8] | Activity [9] | Activity [10] | Activity [11] | Activity [12] | Activity [13] | Activity [14] | Activity [15] | Activity [16] | Activity [17] | Activity [18] | Activity [19] | Activity [20] | other results
Cl.O[C@H]1CN[C@H](COCCCCCCCCC/C=C/c2ccc(Oc3ccccc3)cc2)C1 | 3.6 µM | 75.1% | 20.6% | 91.2% | 62.4% | 8.9% | 6.6% | 88% | 25.3% | 82.1% | 10.8% | 67.1% | 23.1% | 86.8% | 86.1% | 49.5% | 5.4% | 35.1% | 11.5% | 9.8% | Activity [21]: 87.9%; Activity [22]: 4.3%; Activity [23]: 6.5%; Activity [24]: 56.1%; Activity [25]: 27.8%
Cl.O[C@H]1CN[C@H](COCCCCCC/C=C/c2ccc(-c3ccccc3)cc2)C1 | 4.2 µM | 58.9% | 26% | 92.6% | 69.6% | 16.1% | 19.8% | 93.6% | 29.3% | 73.7% | 10% | 44.4% | 66.6% | 92.1% | 78.5% | 36.9% | 13.5% | 47.9% | 9.6% | 14.6% | Activity [21]: 75.4%; Activity [22]: 6.9%; Activity [23]: 54.5%; Activity [24]: 54.2%; Activity [25]: 71.5%
Cl.O[C@H]1CN[C@H](COCCCCCCCCC/C=C/c2ccc(-c3ccccc3)cc2)C1 | 4 µM | 17.2% | 35.1% | 98.3% | 83.1% | 17.6% | 11.7% | 93.4% | 23.2% | 33.7% | 30.4% | 80.6% | 77.4% | 93.5% | 83.5% | 38% | 39.4% | 56.2% | 8.8% | 9.5% | Activity [26]: 11.4%; Activity [27]: 2.6%; Activity [28]: 59.3%; Activity [29]: 10%; Activity [30]: 7.3%; Activity [31]: 59.3%; Activity [32]: 22.1%; Activity [33]: 49.7%; Activity [34]: 12.7%; Activity [35]: 34.6%; Activity [36]: 72%; Activity [21]: 21.7%; Activity [22]: 9.6%; Activity [23]: 22.1%; Activity [24]: 66.2%; Activity [25]: 84.9%; Activity [37]: 15.7%
Cl.O[C@H]1CN[C@H](COCCCCCCCC/C=C/c2ccc(Oc3ccccc3)cc2)C1 | 3.9 µM | 40.1% | 30.1% | 94.3% | 66.6% | 14.7% | 6.5% | 85.9% | 21.8% | 72.7% | 7.4% | 42.8% | 46.5% | 87.5% | 72.9% | 33.7% | 6.9% | 28.2% | 12.9% | 9.1% | Activity [21]: 74.8%; Activity [22]: 3.5%; Activity [23]: 8.1%; Activity [24]: 43.8%; Activity [25]: 48.7%
CCCCCCCC/C=C\CCCCCCCCNC[C@H]1NC[C@H](O)[C@@H]1O | – | – | – | – | – | – | – | – | – | – | – | – | – | – | – | – | – | – | – | – | IC50 [38]: 10 µM
